The structures appear in SMILES notation. Where a name gives a salt, the structure may show the parent alone.

T1 sequence (Q9NQS5 whole entry): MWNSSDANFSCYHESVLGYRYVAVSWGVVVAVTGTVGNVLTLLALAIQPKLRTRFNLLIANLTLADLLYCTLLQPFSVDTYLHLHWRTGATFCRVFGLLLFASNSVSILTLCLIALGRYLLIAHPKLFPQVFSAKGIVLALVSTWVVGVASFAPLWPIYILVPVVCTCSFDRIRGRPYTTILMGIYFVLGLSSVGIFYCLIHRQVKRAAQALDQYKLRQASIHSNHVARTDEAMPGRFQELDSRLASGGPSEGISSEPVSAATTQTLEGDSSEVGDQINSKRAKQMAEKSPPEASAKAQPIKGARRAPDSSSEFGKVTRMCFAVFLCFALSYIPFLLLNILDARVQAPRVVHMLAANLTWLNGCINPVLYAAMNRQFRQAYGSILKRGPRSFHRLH

This assay concerns the target T1, human GPR84 receptor (Homo sapiens, UniProt Q9NQS5).
T1 construct: frozen aliquots prepared by acCELLerate; host or cells: CHO-K1
Description: cAMP HTRF assay for identification of cellular GPR84 antagonists. The following applies: CHO-K1 cells stably expressing human GPR84; Forskolin plus agonist 6-OAU; cAMP HTRF readout; average or median values. In kind it is cell-based. The text has this: cAMP HTRF® Assay for Identification of Cellular GPR84 Antagonists
By using a Homogenous Time-Resolved Fluorescence (HTRF®) based assay (#62AM5PEJ, Cisbio, Condolet, France) the inhibition of the Gi-coupled GPR84 receptor can be detected. CHO-K1 cells stably expressing human GPR84 receptor (purchased from DiscoveRx, now Eurofins) were used and treated with Forskolin (F6886, Sigma, Germany) to stimulate membrane adenylyl cyclases and thereby unspecific cAMP formation. Activation of the Gi-coupled GPR84 by a natural or small molecule agonist (e.g. 6-n-octyl aminouracile, inhouse) results in inhibition of cellular cAMP formation which can be released again by antagonists to this receptor. Detection and quantification of cellular cAMP levels in this HTRF assay is achieved by interaction between a fluorescent cAMP tracer (cAMP-d2) and an Eu-cryptate labelled anti-cAMP antibody. Following excitation at 337 nm this pairing allows for the generation of a fluorescence resonance energy transfer (FRET) between the partners and results in FRET induced emissions at 665 nm and 620 nm, the latter representing background signal by Eu-cryptate labelled anti-cAMP antibody. Maximal signal is obtained in the absence of any cellular cAMP (no competition for the binding of the tracer to the antibody). Given the combination of the Gi coupling properties of GPR84 and the competitive nature of the detection system agonist treatment should result in an increase in the HTRF signal due to lowered cAMP levels. Any signal decrease in the presence of Forskolin, agonist and compound are indicative of antagonist mediated abrogation of GPR84 signalling.
For the assay, frozen aliquots of CHO-K1 cells expressing hGPR84 (prepared by acCELLerate, Hamburg, Germany) were thawed and a cell suspension (1.67E+06 cells/mL) in assay media (Ham's F12 Nutrient Mix, Thermo Fisher Scientific, Waltham, USA; 5% fetal calf serum, Biomol, Hamburg, Germany) containing cAMP-d2 (dilution 1:20, supplied with the kit #62AM5PEJ, Cisbio, Condolet, France) was prepared. After recovery of cells for 20 minutes at 37° C., 3 μL/well cell suspension including cAMP-d2 were added to a pre-dispensed assay plate (Greiner Bio-One, Kremsmuenster, Austria) containing 50 nl/well test compound in 100% DMSO or 100% DMSO as control. This was followed by a 30 minute incubation step at room temperature. The stimulation time was started by addition of 2 μL/well assay media containing 2.5×EC80 agonist 6-OAU and 2.5×EC90 Forskolin (negative control: 2.5×EC90 Forskolin in assay media) and was continued for 30 minutes at room temperature. The reaction was stopped by addition of 3 μL/well lysis buffer containing cAMP Eu-Cryptate antibody (dilution 1:20) (both supplied with the kit #62AM5PEJ, Cisbio, Condolet, France). To enable complete lysis, plates were incubated for 60 minutes at room temperature before measurement in an HTRF reader, e.g. a PHERAstar (BMG Labtech, Ortenberg, Germany).
From the fluorescence emissions at 665 nm (FRET) and at 620 nm (background signal of Eu-cryptate) the ratio (emission at 665 nm divided by emission at 620 nm×10000) was calculated and the data were normalized (reaction without test compound, only 100% DMSO=0% inhibition; all other assay components except agonist=100% inhibition). For dose response testing on the same microtiter plate, compounds were tested at 11 different concentrations in the range of 20 μM to 0.07 nM (20 μM, 5.7 μM, 1.6 μM, 0.47 μM, 0.13 μM, 38 nM, 11 nM, 3.1 nM, 0.89 nM, 0.25 and 0.07 nM; dilution series prepared before the assay at the level of the 100-fold conc. stock solutions by serial 1:3.5 dilutions in 100% DMSO) in duplicate values for each concentration. IC50 values were calculated by 4-parameter fitting using a commercial software package (Genedata Screener, Basel, Switzerland).
Examples were tested in selected biological assays one or more times. […]
A general note: TR-FRET usually uses a lanthanide donor and a delayed reading to cut background.
Take `Cc1c(C(=O)N(C)Cc2ccccn2)oc2c1-c1nn(Cc3ccc(Cl)cc3)cc1CC2` [Example 89, 2-[(4-chlorophenyl)methyl]-N,8-dimethyl-N-[(pyridin-2-yl)methyl]-4,5-dihydro-2H-furo[2,3-g]indazole-7-carboxamide]: the IC50 is 17400 nM.
Consider `Cc1c(C(=O)NCCN2CCCCC2)oc2c1-c1nn(Cc3ccccc3Cl)cc1CC2` [Example 13, 2-[(2-chlorophenyl)methyl]-8-methyl-N-[2-(piperidin-1-yl)ethyl]-4,5-dihydro-2H-furo[2,3-g]indazole-7-carboxamide], for which the IC50 worked out at 360 nM.
For the compound `Cc1c(C(=O)NC2CCOCC2)oc2c1-c1nn(Cc3ccc(Cl)cc3)cc1CC2` [Example 77, 2-(4-chlorobenzyl)-8-methyl-N-(tetrahydro-2H-pyran-4-yl)-4,5-dihydro-2H-furo[2,3-g]indazole-7-carboxamide], the 50% inhibitory concentration (IC50) is 13800 nM.
The result for `Cc1ccc(Cn2cc3c(n2)-c2c(oc(C(=O)NCc4ccon4)c2C)CC3)cc1` [Example 3, 8-methyl-2-[(4-methylphenyl)methyl]-N-[(1,2-oxazol-3-yl)methyl]-4,5-dihydro-2H-furo[2,3-g]indazole-7-carboxamide] reads 140 nM; that for `Cc1c(C(=O)N2CCN(S(C)(=O)=O)CC2)oc2c1-c1nn(Cc3ccc(Cl)cc3)cc1CC2` [Example 67, {2-[(4-chlorophenyl)methyl]-8-methyl-4,5-dihydro-2H-furo[2,3-g]indazol-7-yl}[4-(methanesulfonyl)piperazin-1-yl]methanone], 7830 nM.
The same measure for `Cc1c(C(=O)NCc2cnn3ccccc23)oc2c1-c1nn(Cc3ccc(Cl)cc3)cc1CC2` [Example 50, 2-[(4-chlorophenyl)methyl]-8-methyl-N-[(pyrazolo[1,5-a]pyridin-3-yl)methyl]-4,5-dihydro-2H-furo[2,3-g]indazole-7-carboxamide]: 2690 nM; for `COCCNC(=O)c1oc2c(c1C)-c1nn(Cc3ccc(Cl)cc3)cc1CC2` [Example 40, 2-[(4-chlorophenyl)methyl]-N-(2-methoxyethyl)-8-methyl-4,5-dihydro-2H-furo[2,3-g]indazole-7-carboxamide]: 410 nM; for `Cc1ccccc1Cn1cc2c(n1)-c1c(oc(C(=O)NCC3CCCN3)c1C)CC2` (single isomer, unassigned) [Example 7-2]: 630 nM.
In the case of `Cc1c(C(=O)NC(C)(C)C#N)oc2c1-c1nn(Cc3ccc(Cl)cc3)cc1CC2` [Example 86, 2-[(4-chlorophenyl)methyl]-N-(2-cyanopropan-2-yl)-8-methyl-4,5-dihydro-2H-furo[2,3-g]indazole-7-carboxamide], the IC50 came to 17100 nM.
Turning to `Cc1c(C(=O)NCC2CC2)oc2c1-c1nn(Cc3ccc(Cl)cc3)cc1CC2` [Example 51, 2-[(4-chlorophenyl)methyl]-N-(cyclopropylmethyl)-8-methyl-4,5-dihydro-2H-furo[2,3-g]indazole-7-carboxamide], the IC50 is 2720 nM.
Take `Cc1c(C(=O)NC2CCC(=O)NC2)oc2c1-c1nn(Cc3ccc(Cl)cc3)cc1CC2` (stereo not drawn) [Example 81, 2-[(4-chlorophenyl)methyl]-8-methyl-N-(6-oxopiperidin-3-yl)-4,5-dihydro-2H-furo[2,3-g]indazole-7-carboxamide]: the IC50 turned out to be 16100 nM.
Take `COCCNC(=O)CNC(=O)c1oc2c(c1C)-c1nn(Cc3ccc(Cl)cc3)cc1CC2` [Example 32, 2-[(4-chlorophenyl)methyl]-N-{2-[(2-methoxyethyl)amino]-2-oxoethyl}-8-methyl-4,5-dihydro-2H-furo[2,3-g]indazole-7-carboxamide]: the IC50 was 2460 nM.
On to `Cc1c(C(=O)NCCO)oc2c1-c1nn(Cc3ccc(Cl)cc3)cc1CC2` [Example 58, 2-[(4-chlorophenyl)methyl]-N-(2-hydroxyethyl)-8-methyl-4,5-dihydro-2H-furo[2,3-g]indazole-7-carboxamide], for which the IC50 was 5220 nM.
The result for `Cc1ccccc1Cn1cc2c(n1)-c1c(oc(C(=O)NCC3CCCN3)c1C)CC2` (racemic) [Example 7, 8-methyl-2-[(2-methylphenyl)methyl]-N-{[(2RS)-pyrrolidin-2-yl]methyl}-4,5-dihydro-2H-furo[2,3-g]indazole-7-carboxamide] reads 680 nM; that for `Cc1c(C(=O)NCC2CCOCC2)oc2c1-c1nn(Cc3ccc(Cl)cc3)cc1CC2` [Example 52, 2-[(4-chlorophenyl)methyl]-8-methyl-N-[(oxan-4-yl)methyl]-4,5-dihydro-2H-furo[2,3-g]indazole-7-carboxamide], 2960 nM.
Regarding `Cc1c(C(=O)NCc2ncc[nH]2)oc2c1-c1nn(Cc3ccc(Cl)cc3)cc1CC2` [Example 78, 2-[(4-chlorophenyl)methyl]-N-[(1H-imidazol-2-yl)methyl]-8-methyl-4,5-dihydro-2H-furo[2,3-g]indazole-7-carboxamide], the IC50 was determined as 14300 nM.
Regarding `Cc1ccc(Cn2cc3c(n2)-c2c(oc(C(=O)NC[C@@H]4CCCO4)c2C)CC3)cc1` [Example 1, 8-methyl-2-[(4-methylphenyl)methyl]-N-[(2S)-tetrahydrofuran-2-ylmethyl]-4,5-dihydro-2H-furo[2,3-g]indazole-7-carboxamide], the IC50 came to 18 nM.
For the compound `Cc1ccccc1Cn1cc2c(n1)-c1c(oc(C(=O)NCC3CCCN3)c1C)CC2` (racemic) [Example 7-3, 8-methyl-2-[(2-methylphenyl)methyl]-N-{[(2RS)-pyrrolidin-2-yl]methyl}-4,5-dihydro-2H-furo[2,3-g]indazole-7-carboxamide hydrochloride (1:1)], the IC50 was found to be 1180 nM.
On to `Cc1c(C(=O)NCCN2CCC2)oc2c1-c1nn(Cc3cccc(Cl)c3)cc1CC2` [Example 20, N-[2-(azetidin-1-yl)ethyl]-2-[(3-chlorophenyl)methyl]-8-methyl-4,5-dihydro-2H-furo[2,3-g]indazole-7-carboxamide], for which the IC50 was 1540 nM.
As for `Cc1ccccc1Cn1cc2c(n1)-c1c(oc(C(=O)NCC3CCCN3)c1C)CC2` (single isomer, unassigned) [Example 7-1], the IC50 is 720 nM.
As for `Cc1c(C(=O)N2CC3CC3C2)oc2c1-c1nn(Cc3ccc(Cl)cc3)cc1CC2` (stereo not drawn) [Example 68, (3-azabicyclo[3.1.0]hexan-3-yl){2-[(4-chlorophenyl)methyl]-8-methyl-4,5-dihydro-2H-furo[2,3-g]indazol-7-yl}methanone], the concentration for half-maximal inhibition (IC50) turned out to be 7970 nM.
On to `Cc1c(C(=O)NCCN2CCCCC2)oc2c1-c1nn(Cc3cccc(Cl)c3)cc1CC2` [Example 19, 2-[(3-chlorophenyl)methyl]-8-methyl-N-[2-(piperidin-1-yl)ethyl]-4,5-dihydro-2H-furo[2,3-g]indazole-7-carboxamide], for which the IC50 worked out at 780 nM.
Take `Cc1c(C(=O)NCc2cnn(C)c2)oc2c1-c1nn(Cc3ccc(Cl)cc3)cc1CC2` [Example 47, 2-[(4-chlorophenyl)methyl]-8-methyl-N-[(1-methyl-1H-pyrazol-4-yl)methyl]-4,5-dihydro-2H-furo[2,3-g]indazole-7-carboxamide]: the IC50 worked out at 1870 nM.
In the case of `Cc1c(C(=O)NCc2ccn(C)n2)oc2c1-c1nn(Cc3ccc(Cl)cc3)cc1CC2` [Example 37, 2-[(4-chlorophenyl)methyl]-8-methyl-N-[(1-methyl-1H-pyrazol-3-yl)methyl]-4,5-dihydro-2H-furo[2,3-g]indazole-7-carboxamide], the IC50 came to 180 nM.

As a reminder, the IC50 is the point on the concentration scale where inhibition reaches its midpoint.

For the origin of these results see patent US20240239804A1, “FUROINDAZOLE DERIVATIVES AS ANTAGONISTS OR INHIBITORS OF GPR84” (Bayer Aktiengesellschaft, priority 2021, published 2024).
